Laboratory results: ChEMBL document CHEMBL1649219, “Imidocarb dipropionate clears persistent Babesia caballi infection with elimination of transmission potential” (Antimicrob Agents Chemother, 2009)
The source made the active and inactive calls.

Columns and labels:
Format in all cases: functional, organism-based
Set-up in all cases: dose 4 mg/kg
[1] = system: Babesia caballi; assay: Antiparasitic activity against Babesia caballi infected in horse assessed as reduction in parasite specific antibodies at 4 mg/kg, im dosed 4 times at 72 hrs intervals administered 70 days postinfection measured 222 days post dose by immunoblot
[2] = system: Babesia caballi; assay: Antiparasitic activity against Babesia caballi receiving blood from 4 times 4 mg/kg, im compound treated donor horse infected with Babesia caballi assessed as reduction in parasite level measured after 100 days post-parasite transmission by nested PCR
[3] = system: Babesia caballi; assay: Antiparasitic activity against Babesia caballi infected in horse assessed as reduction in parasite level at 4 mg/kg, im dosed 4 times at 72 hrs intervals administered 70 days postinfection and measured 5 days post last dose by nested PCR
[4] = system: Babesia caballi; assay: Antiparasitic activity against Babesia caballi infected in horse assessed as reduction in parasite specific antibodies at 4 mg/kg, im dosed 4 times at 72 hrs intervals administered 70 days postinfection measured 201 days post dose by C-ELISA
[5] = system: Babesia caballi; assay: Antiparasitic activity against Babesia caballi infected in horse assessed as reduction in parasite level at 4 mg/kg, im dosed 4 times at 72 hrs intervals administered 70 days postinfection and measured 5 days post last dose by quantitative PCR
[6] = system: Babesia caballi; assay: Antiparasitic activity against Babesia caballi receiving ticks from 4 times 4 mg/kg, im compound treated donor horse infected with Babesia caballi assessed as reduction in parasite specific antibodies measured after 100 days post-parasite transmission by C-ELISA
[7] = system: Babesia caballi; assay: Antiparasitic activity against Babesia caballi receiving blood from 4 times 4 mg/kg, im compound treated donor horse infected with Babesia caballi assessed as reduction in parasite specific antibodies measured after 100 days post-parasite transmission by C-ELISA
[8] = system: Babesia caballi; assay: Antiparasitic activity against Babesia caballi receiving ticks from 4 times 4 mg/kg, im compound treated donor horse infected with Babesia caballi assessed as reduction in parasite level measured after 100 days post-parasite transmission by nested PCR
[9] = system: Babesia caballi; assay: Antiparasitic activity against Babesia caballi infected in horse assessed as reduction in parasite specific antibodies at 4 mg/kg, im dosed 4 times at 72 hrs intervals administered 70 days postinfection measured 56 days post dose by complement fixation assay

Measured: Activity

O=C(Nc1cccc(C2=NCCN2)c1)Nc1cccc(C2=NCCN2)c1
active: all assays above
